Data published in patent US20230406812A1, “NOVEL AMINOAROMATIC COMPOUND OR PHARMACEUTICALLY ACCEPTABLE SALT THEREOF, AND PHARMACEUTICAL COMPOSITION FOR PREVENTING OR TREATING NEURODEGENERATIVE DISEASES COMPRISING SAME AS ACTIVE INGREDIENT” (INSTITUTE FOR BASIC SCIENCE, priority 2020, published 2023).

Legend:
[1] = target: hemoglobin (Hb) (Homo sapiens, UniProt P68871+P69905); assay: Hydrogen peroxide scavenging ability with hemoglobin (Amplex Red H2O2 assay); assay type: biochemical; conditions: 10 μM H2O2, 80 μg/ml hemoglobin, 37° C. about 30 minutes
Chain of hemoglobin (Hb) (P69905 2-142 limits assumed): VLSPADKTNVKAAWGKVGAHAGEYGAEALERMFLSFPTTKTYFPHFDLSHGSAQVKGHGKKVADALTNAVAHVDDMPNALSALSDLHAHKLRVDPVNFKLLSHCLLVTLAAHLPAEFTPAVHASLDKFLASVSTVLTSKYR
Chain of hemoglobin (Hb) (P68871 2-147 limits assumed): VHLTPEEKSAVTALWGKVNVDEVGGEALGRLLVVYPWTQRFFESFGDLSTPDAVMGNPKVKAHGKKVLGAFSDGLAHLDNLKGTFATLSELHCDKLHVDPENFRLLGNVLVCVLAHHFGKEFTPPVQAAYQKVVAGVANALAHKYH
Protocol: Amplex Red is a means which turns into a fluorescent substance called resorufin when horse radish peroxidase (HRP) and H2O2 exist together and allows measurement of changes in H2O2, that is, H2O2 assay. […] The experiment was performed by adding hemoglobin instead of HRP to the H2O2 assay by Amplex Red (FIG. 1). The final concentration of each substance was 10 μM of H2O2 and 80 μg/ml of hemoglobin, and the aminoaromatic compound of the present invention was treated by concentration. After the reaction at 37° C. for about 30 minutes as such, fluorescence (excitation: 540 nm, emission: 580 nm) was measured by a microplate reader. At this time, it can be said that fluorescence is proportional to the amount of H2O2. Normalization was performed for each concentration based on a fluorescence value without a drug, and a value at which the fluorescence value was 50%, that is, a half maximal effective concentration (EC50) was determined by a program through statistical processing. The results are shown in the following Table 2, and AAD-2004 was used as a control group.

[2] = Blood brain barrier (BBB) permeability analysis (PAMPA); assay type: in vitro ADME
Protocol: Based on J Med Chem. 2001 Mar. 15; 44 (6):923-30., an artificial blood brain barrier (BBB) was produced by a parallel artificial membrane permeability assay (PAMPA), and the permeability of the drug was assessed.

[3] = test system: primary cultured astrocytes; assay: In vitro H2O2 decomposition in primary cultured astrocytes (H2DCFDA-AM); assay type: cell-based, C57BL/6 mice
Protocol: (§1) Primary cortical astrocytes were prepared from C57BL/6 mice from the day of birth to day 3 since birth. The cerebral cortex was dissected without adherent meninges, minced, and dissociated into a single cell suspension by trituration. The cells were grown in Dulbecco's modified Eagle's medium (DMEM) (Invitrogen) supplemented with 25 mM glucose, 10% heat-inactivated horse serum, 10% heat-inactivated fetal calf serum (FCS), 2 mM glutamine, and 1,000 U/ml of penicillin-streptomycin. Culture was maintained at 37° C. in a humidified 5% CO2 incubator. On day 3 of the culture, cells were vigorously washed by repeated pipetting, and the medium was exchanged to remove debris and other floating cell types.
In order to verify that there was a H2O2 scavenging effect in a cell-level experiment, a cell-permeant 2′,7′-dichlorodihydrofluorescein diacetate (H2DCFDA-AM) drug which is a hydrogen peroxide probe in astrocytes was used to measure the amount of H2O2 in the cells with fluorescence (A and B of FIG. 2). […]
An experiment timeline for investigating the H2O2 decomposition effect by the aminoaromatic compound of the present invention, KDS12008 (Example 1) (10 μM) and sodium pyruvate (10 mM) for naturally occurring H2O2 in the cultured astrocytes is shown in A of FIG. 2. […] H2DCFDA-AM was a sample which reacted with H2O2 to produce green fluorescence, and was used at 10 μM for measurement. […]

[4] = test system: cultured astrocytes; assay: Cell viability (QuantiMax reagent); assay type: cell-based, C57BL/6 mice
Protocol: as §1
In addition, in order to investigate cell viability, the experiment was performed using a QuantiMax reagent. The cell viability was confirmed by a luminescence degree of QuantiMax, and the results are shown in B of FIG. 3.

[5] = test system: APP/PS1 mouse; assay: Passive avoidance test (PAT) I; assay type: in vivo
Protocol: A passive avoidance test is an experiment to check the memory of animals, in which a weak electric stimulation was given in a dark room and it was assessed whether the animal remembered the electrical stimulation.
Since mice preferred a dark room, they have a tendency to move quickly to a dark room when they are in a bright room. […] A time to move from a bright room to a dark room (latency to dark room, sec) was measured, thereby measuring memory of a combination of the electrical stimulation and the dark room. An APP/PS1 mouse which is used as an Alzheimer's animal model was used to perform the passive avoidance test (FIG. 4). A wild type (WT) mouse was used as a control group.
(§2) On the first day of PAT, as an acquisition session, the mouse was allowed to stay in a bright room, and after a certain time, a dark room was opened and a time for the mouse to enter the dark room was measured. When the mouse entered the dark room, an electrical shock (0.5 mA, 2 sec) was given by a foothold. On the second day, as a retrieval session, the mouse was placed in a bright room, and a time for the mouse to enter a dark room was measured. At this time, the door of the dark room was opened first.
The APP/PS1 dementia mouse was intraperitoneally injected with the aminoaromatic compound of the present invention (KDS12008 (Example 1), KDS12017 (Example 16), or KDS12025 (Example 21)) (KDS12008 (Example 1) 30 mg/kg/day (30 mpk); KDS12017 (Example 16) 30 mg/kg/day (30 mpk); KDS12025 (Example 21) 3 mg/kg/day (3 mpk)) for 16 days (intraperitoneal injection, IP).

[6] = test system: APP/PS1 mouse hippocampus astrocytes (GFAP); assay: Immunohistochemistry (IHC) I of brain tissue, GFAP; assay type: in vivo
Protocol: (§3) The brain of the Alzheimer's animal model of Experimental Example 3 was fixed with formaldehyde, and sliced into a small thickness. The amount of cells or specific protein in the sliced brain was measured with an image by histochemical staining. In the present experimental example, an antibody labeling an astrocyte was used to measure a change in astrocytes related to dementia. The results are illustrated in FIG. 5. That is, in the present experimental example, the hippocampus of the brain was histologically stained and a change in astrocytes around dementia substance amyloid beta was observed. Glial fibrillary acidic protein (GFAP) refers to astrocytes staining, 4′,6-diamidino-2-phenylindole (DAPI) marked cell nuclei and amyloid beta substance.

[7] = test system: WT mouse (C57BL/6 mouse); assay: Single toxicity assessment (lethal dose 50, LD50); assay type: in vivo; conditions: for animals died: C57BL/6, mouse, 300 mg/kg; for animals died / toxicity (death of animals): in vivo, ip; for toxicity (death of animals): mouse, 1000 mg/kg; for lethal toxicity: single dose 100 mg/kg IP, C57BL/6 mouse
Protocol: The aminoaromatic compound of the present invention, KDS12008 (Example 1), KDS12017 (Example 16), or KDS12025 (Example 21) was intraperitoneally injected at a single dose of 100, 300, and 1000 mg/kg, respectively, into a WT mouse at about 8 weeks of age (C57BL/6 mouse), and it was assessed whether the animal was dead.

[8] = test system: APP/PS1 mouse; assay: Passive avoidance test (PAT) II; assay type: in vivo
Protocol: as §2
3 mg/kg/day (3 mpk) and 10 mg/kg/day (10 mpk) of the aminoaromatic compound of the present invention, KDS12025 (Example 21) was intraperitoneally injected into the APP/PS1 mouse which is used as an Alzheimer's animal model for one week, and the passive avoidance test was performed in the same manner as in Experimental Example 3. The results are illustrated in FIG. 6.

[9] = test system: APP/PS1 mouse hippocampus astrocytes (GFAP); assay: Immunohistochemistry (IHC) II of brain tissue; assay type: in vivo
Protocol: as §3
The Alzheimer's animal model of Experimental Example 5 was used to perform histochemical staining of the brain tissue in the same manner as in Experimental Example 4, and the results are shown in FIG. 7.

[10] = test system: APP/PS1 mouse hippocampus cells; assay: Electrophysiology experiment (tonic GABA); assay type: in vivo; conditions: 3 mg/kg/day or 10 mg/kg/day
Protocol: The Alzheimer's animal model of Experimental Example 5 was used to confirm the influence of astrocytes and the mechanism causing memory impairment in dementia through an electrophysiology experiment.
Therefore, in the present experimental example, each of the APP/PS1 mouse as the Alzheimer's animal model, the APP/PS1 mouse treated with 3 mg/kg/day or 10 mg/kg/day, respectively, of the aminoaromatic compound of the present invention, KDS12025 (Example 21), and a healthy normal mouse (wild type, WT) was anesthetized, and brain tissues were obtained therefrom to measure an electrical signal of living hippocampus cells. Thus, the tonic GABA which inhibits neurotransmission in a brain cell was measured. The results are illustrated in FIG. 8.

[11] = test system: APP/PS1+GiD Alzheimer's model mouse (APP+DTR); assay: Novel place recognition experiment; assay type: in vivo; conditions: 3 mg/kg/day i.p.
Protocol: The cognitive function related to hippocampus was assessed by a novel place recognition experiment to confirm the cognitive impairment and recovery. The same objects were put for a certain period of time for interaction, and after one hour, the position of only one object was changed. When having a normal cognitive function, a past memory is maintained to grow interest in a new object, but when having cognitive impairment, a new place is not determined. At this time, as an animal model, an APP/PS1+GiD Alzheimer's mode mouse which is a more closely developed model mouse to the phenomenon shown in the Alzheimer's dementia patient was used. The APP/PS1+GiD Alzheimer's model mouse was produced referring to Nature Neuroscience 23, 1555-1566 (2020).
In the present experiment, APP/PS1+GiD was produced by injecting AAV-GFAP104-DTR-GFP virus into the hippocampus of the APP/PS1 mouse, and hereinafter, is referred to as “APP+DTR”. In addition, the product obtained by injecting AAV-GFAP104-GFP virus into the hippocampus of the APP/PS1 mouse was referred to as “APP+GFP”. In addition, APP+DTR to which the aminoaromatic compound of the present invention, KDS12025 (Example 21) was administered was referred to as “APP+DTR+KDS12025”. […]

[12] = test system: APP/PS1+GiD Alzheimer's model mouse (APP+DTR); assay: Passive avoidance test (PAT) in APP/PS1+GiD mouse; assay type: in vivo
Protocol: In the present experiment, APP/PS1+GiD was produced by injecting AAV-GFAP104-DTR-GFP virus into the hippocampus of the APP/PS1 mouse, and hereinafter, is referred to as “APP+DTR”. In addition, the product obtained by injecting AAV-GFAP104-GFP virus into the hippocampus of the APP/PS1 mouse was referred to as “APP+GFP”. In addition, APP+DTR to which the aminoaromatic compound of the present invention, KDS12025 (Example 21) was administered was referred to as “APP+DTR+KDS12025”. In addition, as the WT mouse, APP/PS1 and littermate were used, and the product obtained by injecting AAV-GFAP104-GFP virus into the hippocampus of the WT mouse was referred to as “WT+GFP” and the product obtained by injecting AAV-GFAP104-DTR-GFP virus into the hippocampus of the WT mouse was referred to as “WT+DTR”.
In addition, as a result of PAT, the normal mouse (WT+GFP) remembered the dark room where it was given an electrical stimulation well and took a long time to enter the dark room.

Row | Compound | EC50 [1] [nM] | Papp at 50 μM [2] [×10⁻⁶ cm/s] | latency to dark room (impaired memory) ([5]; 30 mg/kg/day IP for 16 days) | GFAP (astrocytes) in hippocampus ([6]; 30 mg/kg/day IP for 16 days) | animals died [7] | toxicity (death of animals) [7] | lethal toxicity [7] | other results
1 | O=C(O)c1cc(NCCc2ccc(C(F)(F)F)cc2)ccc1O [AAD-2004, reference compound] | 990 | 3.56 | – | – | – | – | – | –
2 | CN(C)c1ccc(NCCc2ccc(C(F)(F)F)cc2)cc1 [Example 1] | 540 | – | significantly recovered | decreased GFAP | about 50% | showed toxicity | lethal toxicity was not shown | H2O2 decomposition effect on naturally occurring H2O2 ([3]; 10 μM, 2 days, cultured astrocytes): statistically significant decrease in H2O2; amount of H2O2 in cells (fluorescence intensity) ([3]; astrocytes treated at various concentrations): H2O2 was decreased with the concentration; cell viability ([4]; 100 μM): no effect on cell viability
3 | CNc1ccc(NCCc2ccc(C(F)(F)F)cc2)cc1 [Example 16] | 190 | – | significantly recovered | decreased GFAP | about 50% | showed toxicity | lethal toxicity was not shown | –
4 | CNc1ccc(NCCc2ccccc2OC)cc1 [Example 21] | 60 | 67.4 | – | – | about 50% | showed toxicity | lethal toxicity was not shown | latency to dark room (impaired memory) ([5]; 3 mg/kg/day IP for 16 days): significantly recovered; GFAP (astrocytes) in hippocampus ([6]; 3 mg/kg/day IP for 16 days): decreased GFAP; memory in passive avoidance test ([8]; 3 mg/kg/day IP for one week): maintained its memory similarly to the healthy normal mouse; memory in passive avoidance test ([8]; 10 mg/kg/day IP for one week): maintained its memory similarly to the healthy normal mouse; astrocytes (GFAP staining) in hippocampus ([9]; 3 mg/kg/day IP for one week): astrocytes returned to a healthy normal level; astrocytes (GFAP staining) in hippocampus ([9]; 10 mg/kg/day IP for one week): astrocytes returned to a healthy normal level; tonic GABA [10]: decreased tonic GABA; cognitive function (novel place recognition) [11]: recovered cognitive function; memory in passive avoidance test [12]: recovered memory
5 | CC(=O)C(=O)[O-].[Na+] [sodium pyruvate, reference compound] | – | – | – | – | – | – | – | cell viability ([4]; 10 mM): lowered cell viability
